# Data from ChEMBL document CHEMBL2384932, “Radiosynthesis and evaluation of [11C]EMPA as a potential PET tracer for orexin 2 receptors” (Bioorg Med Chem Lett, 2013).
# Legend:
# [1] = Ratio of drug level in brain to plasma of ip dosed mouse after 45 mins; format: ADME, organism-based; conditions: read-out: BPR
# [2] = Drug uptake in baboon blood at 4.49 mCi by PET-MR imaging analysis; format: ADME; conditions: papio anubis
# [3] = test system: Brain; experiment: Drug uptake in baboon brain at 4.49 mCi after 80 mins by PET-MR imaging analysis; format: ADME; conditions: papio anubis, in vivo
# [4] = test system: Kidney; experiment: Drug uptake in Sprague-Dawley rat kidney at 1.0 to 1.2 mCi, iv after 90 mins by PET-CT scan in presence of non radiolabeled ligand EMPA; format: ADME, organism-based; conditions: in vivo, 1.5 h
# [5] = test system: Liver; experiment: Drug uptake in Sprague-Dawley rat liver at 1.0 to 1.2 mCi, iv after 90 mins by PET-CT scan in presence of non radiolabeled ligand EMPA; format: ADME, organism-based; conditions: in vivo, 1.5 h
# [6] = test system: Brain; experiment: Drug uptake in Sprague-Dawley rat brain at 1.0 to 1.2 mCi, iv after 60 mins by PET-CT scan in presence of non radiolabeled ligand EMPA; format: ADME, organism-based; conditions: in vivo, 1 h
# [7] = Lipophilicity, log D of the compound in phosphate buffer at ph 7.4; format: physicochemical
# [8] = Fraction unbound in baboon plasma after 10 mins; format: ADME, cell-free; conditions: papio anubis
# [9] = target: T1, Orexin receptor type 2 (Rattus norvegicus) (UniProt P56719); experiment: Binding affinity to rat brain OX2 receptor assessed per mg of protein
# T1 sequence (whole entry): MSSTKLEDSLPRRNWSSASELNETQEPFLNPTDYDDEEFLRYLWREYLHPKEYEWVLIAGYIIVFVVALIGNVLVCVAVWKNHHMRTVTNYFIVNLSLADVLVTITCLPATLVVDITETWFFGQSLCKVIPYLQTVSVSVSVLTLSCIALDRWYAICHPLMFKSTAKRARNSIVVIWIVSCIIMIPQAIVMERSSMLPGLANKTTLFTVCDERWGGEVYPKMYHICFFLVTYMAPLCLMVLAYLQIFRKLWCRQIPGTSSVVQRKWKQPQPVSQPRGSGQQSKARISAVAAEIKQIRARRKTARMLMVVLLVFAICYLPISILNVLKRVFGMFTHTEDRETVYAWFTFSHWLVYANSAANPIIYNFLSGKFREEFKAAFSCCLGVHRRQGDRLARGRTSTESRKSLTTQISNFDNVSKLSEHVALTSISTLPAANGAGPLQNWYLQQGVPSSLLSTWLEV
smiles,measurement,setting,value
[3H]c1ccc(CN(CC)C(=O)CN(c2ccc(OC([3H])([3H])[3H])nc2)S(=O)(=O)c2ccccc2C)cn1,Kp at 0.75 h,[1],0.7
CCN(Cc1cccnc1)C(=O)CN(c1ccc(O[11CH3])nc1)S(=O)(=O)c1ccccc1C,Drug uptake,[2],Active
same,Drug uptake,[3],< 0.01%
same,Drug uptake,[4],Active
same,Drug uptake,[5],Active
same,Drug uptake,[6],< 0.1%
same,logD,[7],1.94
same,fraction unbound at 10 min,[8],0.113
CCN(Cc1cccnc1)C(=O)CN(c1ccc(OC)nc1)S(=O)(=O)c1ccccc1C,Bmax,[9],6.62 pmol
